Data: patent US20250098679A1, “HERBICIDAL PYRIDONE DERIVATIVES” (SYNGENTA CROP PROTECTION AG, priority 2021, published 2025)

Key:
Type in all cases: in vivo
Conditions in all cases: evaluated after 13 days
[1] = system: Setaria faberi (SETFA); assay: Pre-emergence Test, Setaria faberi (SETFA)
[2] = system: Echinochloa crus-galli (ECHCG); assay: Pre-emergence Test, Echinochloa crus-galli (ECHCG)
[3] = system: Zea mays (ZEAMX); assay: Pre-emergence Test, Zea mays (ZEAMX)
[4] = system: Ipomoea hederacea (IPOHE); assay: Pre-emergence Test, Ipomoea hederacea (IPOHE)
[5] = system: Amaranthus palmeri (AMAPA); assay: Pre-emergence Test, Amaranthus palmeri (AMAPA)
[6] = system: Amaranthus retoflexus (AMARE); assay: Pre-emergence Test, Amaranthus retoflexus (AMARE)
[7] = system: Setaria faberi (SETFA); assay: Post-emergence Test, Setaria faberi (SETFA); parameters: key to percentage damage caused to the plant, SETFA (five-point scale): 5=81-100%, 4=61-80%, 3=41-60%, 2=21-40%, 1=0-20% damage
Procedure, shortened: (§1)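 Pots sprayed with compound in acetone/water (50:50) with 0.5% Tween 20, at 1000 g/ha unless noted, glasshouse 24/16 °C, 14 h light, 65% humidity. Damage scored 13 days after spraying on a five-point scale (5=81-100% to 1=0-20%).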

[8] = system: Echinochloa crus-galli (ECHCG); assay: Post-emergence Test, Echinochloa crus-galli (ECHCG); parameters: key to percentage damage caused to the plant, ECHCG (five-point scale): 5=81-100%, 4=61-80%, 3=41-60%, 2=21-40%, 1=0-20% damage
Procedure, shortened: as §1

[9] = system: Zea mays (ZEAMX); assay: Post-emergence Test, Zea mays (ZEAMX); parameters: key to percentage damage caused to the plant, ZEAMX (five-point scale): 5=81-100%, 4=61-80%, 3=41-60%, 2=21-40%, 1=0-20% damage
Procedure, shortened: as §1

[10] = system: Ipomoea hederacea (IPOHE); assay: Post-emergence Test, Ipomoea hederacea (IPOHE); parameters: key to percentage damage caused to the plant, IPOHE (five-point scale): 5=81-100%, 4=61-80%, 3=41-60%, 2=21-40%, 1=0-20% damage
Procedure, shortened: as §1

[11] = system: Amaranthus palmeri (AMAPA); assay: Post-emergence Test, Amaranthus palmeri (AMAPA); parameters: key: 5=81-100%, 4=61-80%, 3=41-60%, 2=21-40%, 1=0-20% damage
Procedure, shortened: as §1

[12] = system: Amaranthus retoflexus (AMARE); assay: Post-emergence Test, Amaranthus retoflexus (AMARE); parameters: key to percentage damage caused to the plant, AMARE (five-point scale): 5=81-100%, 4=61-80%, 3=41-60%, 2=21-40%, 1=0-20% damage
Procedure, shortened: as §1

Structure (SMILES)	Pre-emergence Test SETFA, percentage damage caused to the plant (five-point scale) ([1]; 1000 g/ha)	Pre-emergence Test ECHCG, percentage damage caused to the plant (five-point scale) ([2]; 1000 g/ha)	Pre-emergence Test ZEAMX, percentage damage caused to the plant (five-point scale) ([3]; 1000 g/ha)	Pre-emergence Test IPOHE, percentage damage caused to the plant (five-point scale) ([4]; 1000 g/ha)	Pre-emergence Test AMAPA, percentage damage caused to the plant (five-point scale) ([5]; 1000 g/ha)	Pre-emergence Test AMARE, percentage damage caused to the plant (five-point scale) ([6]; 1000 g/ha)	percentage damage caused to the plant, SETFA (five-point scale) ([7]; 250 g/Ha)	percentage damage caused to the plant, SETFA (five-point scale) ([7]; 1000 g/ha)	percentage damage caused to the plant, ECHCG (five-point scale) ([8]; 250 g/Ha)	percentage damage caused to the plant, ECHCG (five-point scale) ([8]; 1000 g/ha)	percentage damage caused to the plant, ZEAMX (five-point scale) ([9]; 250 g/Ha)	percentage damage caused to the plant, ZEAMX (five-point scale) ([9]; 1000 g/ha)	percentage damage caused to the plant, IPOHE (five-point scale) ([10]; 250 g/Ha)	percentage damage caused to the plant, IPOHE (five-point scale) ([10]; 1000 g/ha)	percentage damage caused to the plant, AMAPA (five-point scale) ([11]; 250 g/Ha)	percentage damage caused to the plant, AMAPA (five-point scale) ([11]; 1000 g/ha)	percentage damage caused to the plant, AMARE (five-point scale) ([12]; 1000 g/ha)	percentage damage caused to the plant, AMARE (five-point scale) ([12]; 250 g/Ha)	further results
CCn1c(Cn2ccc(SC)n2)cc(=O)c(C(=O)O)c1-c1ccc(Cl)c(Cl)c1 [Compound 35, 2-(3,4-dichlorophenyl)-1-ethyl-6-[(3-methylsulfanylpyrazol-1-yl)methyl]-4-oxo-pyridine-3-carboxylic acid]	4 (4=61-80%)	5 (5=81-100%)	5 (5=81-100%)	4 (4=61-80%)	2 (2=21-40%)	1 (1=0-20%)	4 (4=61-80%)	4 (4=61-80%)	3 (3=41-60%)	4 (4=61-80%)	2 (2=21-40%)	3 (3=41-60%)	4 (4=61-80%)	2 (2=21-40%)	1 (1=0-20%)	1 (1=0-20%)	3 (3=41-60%)		
CCn1c(Cn2ccc(F)n2)cc(=O)c(C(=O)O)c1-c1ccc(Cl)c(Cl)c1 [Compound 36, 2-(3,4-dichlorophenyl)-1-ethyl-6-[(3-fluoropyrazol-1-yl)methyl]-4-oxo-pyridine-3-carboxylic acid]							4 (4=61-80%)		3 (3=41-60%)		2 (2=21-40%)		4 (4=61-80%)		1 (1=0-20%)			2 (2=21-40%)	Pre-emergence Test SETFA, percentage damage caused to the plant (five-point scale) ([1]; 250 g/Ha (*)): 4 (4=61-80%); Pre-emergence Test ECHCG, percentage damage caused to the plant (five-point scale) ([2]; 250 g/Ha (*)): 3 (3=41-60%); Pre-emergence Test ZEAMX, percentage damage caused to the plant (five-point scale) ([3]; 250 g/Ha (*)): 0; Pre-emergence Test IPOHE, percentage damage caused to the plant (five-point scale) ([4]; 250 g/Ha (*)): 0; Pre-emergence Test AMAPA, percentage damage caused to the plant (five-point scale) ([5]; 250 g/Ha (*)): 2 (2=21-40%); Pre-emergence Test AMARE, percentage damage caused to the plant (five-point scale) ([6]; 250 g/Ha (*)): 1 (1=0-20%)
CCn1c(Cn2ccc(OC(F)F)n2)cc(=O)c(C(=O)O)c1-c1ccc(Cl)c(Cl)c1 [Compound 37, 2-(3,4-dichlorophenyl)-6-[[3-(difluoromethoxy)pyrazol-1-yl]methyl]-1-ethyl-4-oxo-pyridine-3-carboxylic acid]	5 (5=81-100%)	5 (5=81-100%)	5 (5=81-100%)	4 (4=61-80%)	2 (2=21-40%)	1 (1=0-20%)	4 (4=61-80%)	5 (5=81-100%)	4 (4=61-80%)	4 (4=61-80%)	1 (1=0-20%)	4 (4=61-80%)	4 (4=61-80%)	2 (2=21-40%)	2 (2=21-40%)	4 (4=61-80%)	1 (1=0-20%)	2 (2=21-40%)	
CCn1c(Cn2ccc(OC)n2)cc(=O)c(C(=O)O)c1-c1ccc(Cl)c(Cl)c1 [Compound 38, 2-(3,4-dichlorophenyl)-1-ethyl-6-[(3-methoxypyrazol-1-yl)methyl]-4-oxo-pyridine-3-carboxylic acid]	5 (5=81-100%)	5 (5=81-100%)	5 (5=81-100%)	4 (4=61-80%)	3 (3=41-60%)	2 (2=21-40%)	4 (4=61-80%)	4 (4=61-80%)	3 (3=41-60%)	4 (4=61-80%)	2 (2=21-40%)	4 (4=61-80%)	4 (4=61-80%)	3 (3=41-60%)	1 (1=0-20%)	4 (4=61-80%)	4 (4=61-80%)	2 (2=21-40%)	
CCn1c(Cn2nc(C)cc2C)cc(=O)c(C(=O)O)c1-c1ccc(Cl)c(Cl)c1 [Compound 39, 2-(3,4-dichlorophenyl)-6-[(3,5-dimethylpyrazol-1-yl)methyl]-1-ethyl-4-oxo-pyridine-3-carboxylic acid]	3 (3=41-60%)	4 (4=61-80%)	0	2 (2=21-40%)	1 (1=0-20%)	1 (1=0-20%)	1 (1=0-20%)	4 (4=61-80%)	3 (3=41-60%)	4 (4=61-80%)	0	4 (4=61-80%)	2 (2=21-40%)	2 (2=21-40%)	1 (1=0-20%)	2 (2=21-40%)	2 (2=21-40%)	2 (2=21-40%)	
CCn1c(Cn2cc(C(=O)OC)cn2)cc(=O)c(C(=O)O)c1-c1ccc(Cl)c(Cl)c1 [Compound 40, 2-(3,4-dichlorophenyl)-1-ethyl-6-[(4-methoxycarbonylpyrazol-1-yl)methyl]-4-oxo-pyridine-3-carboxylic acid]	1 (1=0-20%)	0	0	2 (2=21-40%)	3 (3=41-60%)	1 (1=0-20%)	0	1 (1=0-20%)	1 (1=0-20%)	0	0	2 (2=21-40%)	0	2 (2=21-40%)	0	1 (1=0-20%)	0	1 (1=0-20%)	
